What all share (format): cell-based
In test [1] the test system is VCAMss+10aa/Gaussia Luciferase. Briefly: VCAM-ss-Gluc assay (constitutively active or Dox induced). The note with it: Flp-In 293 T-REx cells, 24 hours. The procedure:
Assays Constitutively Active VCAM-ss-Gluc Assay
Transfected cells were selected for resistance to the selectable markers Hygromycin and Blasticidin to create a stable cell line that constitutively expressed the VCAMss+ 10aa/Gaussia Luciferase fusion protein. The day before assay, cells were trypsinized and plated in 384-well tissue culture plates. The next day, culture media was removed from the wells and replaced with fresh media. Compound dilutions in DMSO/media were added to the wells and incubated at 37° C., 5% CO2.
Dox Induced VCAM-ss-Gluc Assay
Transfected cells were selected for resistance to the selectable markers Hygromycin and Blasticidin to create a stable cell line that contained the VCAMss+10aa/Gaussia Luciferase cDNA insert whose expression was regulated under the T-REx™ system. The day before assay, cells were trypsinized and plated in 384-well tissue culture plates. The next day, compound dilutions in DMSO/media containing doxycycline were added to the wells and incubated at 37° C., 5% CO2.

Test [2] has as its system Prl-ss+10aa/Gaussia Luciferase. Briefly: Prl-ss-Gluc assay (constitutively active or 24 hr Dox inducible). The note with it: Flp-In 293 T-REx cells, 24 hours; read-out: Prl IC50. In short, it runs like this: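 Stable Flp-In 293 T-REx lines express Prl signal sequence+10aa fused to Gaussia luciferase, either constitutively (pcDNA5/FRT) or under the T-REx promoter (pcDNA5/FRT/TO). Cells plated the day before; compounds in DMSO/media (with doxycycline for the inducible line, 24 h) incubated at 37 °C, 5% CO2.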

The subject of test [3] is JJN3 plasma cell leukemia cell line. Briefly: JJN-3 assay (Alamar blue). The note with it: Homo sapiens, 72 h. The procedure:
(§1) BT474 is a human breast tumor cell line. JJN3 is a human plasma cell leukemia cell line. […] Cells were seeded at 100 000 cells/mL. Aliquots of 5000 cells (50 μL) were added to each well in black, clear bottom 96-well plates. Compounds or control (50 uL of 1% DMSO in cell culture medium) were added to the cells to the indicated final concentrations and cells were incubated for 72 h (unless otherwise specified). After incubation was complete, Alamar blue (10 uL of a 1 mg/mL solution) was added to each well and plates were incubated for 5 h. Fluorescence was then measured (excitation 545 nm, emission 590 nm) and is reported as […] normalized to DMSO control.

Test [4] concerns TNFα-FL/Gaussia Luciferase. Briefly: Dox induced TNFα-FL-Gluc assay. The following applies: Flp-In 293 T-REx cells, doxycycline, 24 hours; read-out: TNFa FL Gluc IC50. In short, it runs like this: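 Stable Flp-In 293 T-REx line expressing full-length TNFα (aa 1-233) fused at its C-terminus to Gaussia luciferase under doxycycline-inducible control. Cells plated the day before, then given compound dilutions in DMSO/media containing doxycycline and incubated at 37 °C, 5% CO2.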

Test [5] deals with BT474 breast tumor cell line. Briefly: BT474 assay (Alamar blue). The following applies: Homo sapiens, BT-474, 72 h. On the procedure:
as §1

The test system of test [6] is NCI-H929 multiple myeloma cell line. Briefly: H929 assay (cell viability, Celltiter-Glo). The note with it: Homo sapiens, NCI-H929; 48 hours, cell viability; read-out: H929 EC50. In short, it runs like this:
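Cells plated in RPMI 1640 with 10% FBS and 2 mM glutamine, treated with compound dilutions in DMSO/media. Incubation 48 h at 37° C, 5% CO2. Viability from luciferase luminescence signal.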

The test system of test [7] is PD1-ss+10aa/Gaussia Luciferase. Briefly: Dox induced PD1-ss-Gluc assay. The note with it: Flp-In 293 T-REx cells, doxycycline, 24 hours; read-out: PD1ss Gluc IC50. The essentials: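 Stable Flp-In 293 T-REx line expressing doxycycline-inducible Gaussia luciferase fused to the PD1 signal sequence plus 10 amino acids. Cells plated the day before, then exposed to compound dilutions in DMSO/media containing doxycycline at 37 °C, 5% CO2.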

For test [8], the system named is HER3ss-Gluc. Briefly: HER3ss assay. The note with it: HEK-293T T-rex cells, transient transfection, doxycycline, 24 h; read-out: HER3 ss IC50. In short, it runs like this:
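HEK-293T T-REx cells were transiently transfected with HER3 signal sequence (plus four mature-domain residues) fused upstream of mature Gaussia luciferase. Cells were induced with doxycycline (1 μg/ml) and exposed to increasing compound concentrations for 24 h, then secreted luciferase in the conditioned medium was read by luminescence.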

Square brackets hold non-standard residues; d marks the D form. Peptide text beside a SMILES is read from it. NMeTrp(1-(4-Br-benzyl)) = CN[C@@H](Cc1cn(Cc2ccc(Br)cc2)c2ccccc12)C(=O)O; Butanoyl(2R-oxy,4-CN) = N#CCC[C@@H](O)C(=O)O; Nva(5,5,5-F3) = N[C@@H](CCC(F)(F)F)C(=O)O; Abu(4,4,4-F3) = N[C@@H](CC(F)(F)F)C(=O)O; NMeBta = CN[C@@H](Cc1csc2ccccc12)C(=O)O; tBuAla = CC(C)(C)C[C@H](N)C(=O)O; NMeL = CN[C@@H](CC(C)C)C(=O)O; NMeA = CN[C@@H](C)C(=O)O

Regarding `CC(C)C[C@@H]1NC(=O)[C@H](Cc2csc3ccccc23)N(C)C(=O)[C@H](CC(C)C)NC(=O)[C@H](CC(C)C)N(C)C(=O)[C@H](CC(C)C)NC(=O)[C@@H](CCC#N)OC(=O)[C@H](C)N(C)C1=O` [C-29] (HELM PEPTIDE1{L.[meA].[N#CCC[C@@H](O[*:1])C(=O)[*:2]].L.[meL].L.[CN([C@@H](Cc1csc2ccccc12)C(=O)[*:2])[*:1]]}$PEPTIDE1,PEPTIDE1,1:R1-7:R2$$$V2.0), the IC50 came out at 26 nM in test [1]; 3400 nM in test [2]; 314 nM in test [4]; 100 nM in test [7]; 22 nM in test [8]. The results for the EC50 in test [3], in test [5] and in test [6] were 316 nM, 1340 nM and 2640 nM, respectively.
As for `CCCC[C@@H]1NC(=O)[C@@H](CCC#N)OC(=O)[C@H](C)N(C)C(=O)[C@H](CC(C)C)NC(=O)[C@H](Cc2cn(Cc3ccc(Br)cc3)c3ccccc23)N(C)C(=O)[C@H](CC(C)C)NC(=O)[C@H](CC(C)C)N(C)C1=O` [C-40] (HELM PEPTIDE1{L.[meA].[N#CCC[C@@H](O[*:1])C(=O)[*:2]].[Nle].[meL].L.[CN([C@@H](Cc1cn(Cc2ccc(Br)cc2)c2ccccc12)C(=O)[*:2])[*:1]]}$PEPTIDE1,PEPTIDE1,1:R1-7:R2$$$V2.0), the half-maximal inhibitory concentration (IC50) in test [1] is 122 nM; in test [2], 3260 nM; in test [4], 184 nM; in test [7], 48 nM; in test [8] it was 802 nM. For the same compound, the results for the EC50 in test [3], in test [5] and in test [6] were 327 nM, 2150 nM and 2280 nM, respectively.
`CC(C)C[C@@H]1NC(=O)[C@H](Cc2cn(Cc3ccc(Br)cc3)c3ccccc23)N(C)C(=O)[C@H](CC(C)C)NC(=O)[C@H](CC(C)C)N(C)C(=O)[C@H](CC(C)(C)C)NC(=O)[C@@H](CCC#N)OC(=O)[C@H](C)N(C)C1=O` [C-39] (cyclo(L[NMeA][Butanoyl(2R-oxy,4-CN)][tBuAla][NMeL]L[NMeTrp(1-(4-Br-benzyl))])): the IC50 in test [1] turned out to be 301 nM; in test [2] it was 3290 nM; in test [4] it was 265 nM; in test [7], 67 nM; in test [8], 330 nM. In addition, the figures for the EC50 in test [3], in test [5] and in test [6] were 621 nM, 3570 nM and 3110 nM, respectively.
For `CC(C)C[C@@H]1NC(=O)[C@H](CC(C)C)N(C)C(=O)[C@H](CC(F)(F)F)NC(=O)[C@@H](CCC#N)OC(=O)[C@H](C)N(C)C(=O)[C@H](CCC(F)(F)F)NC(=O)[C@H](Cc2cn(Cc3ccc(Br)cc3)c3ccccc23)N(C)C1=O` [C-48] (cyclo(L[NMeTrp(1-(4-Br-benzyl))][Nva(5,5,5-F3)][NMeA][Butanoyl(2R-oxy,4-CN)][Abu(4,4,4-F3)][NMeL])), the half-maximal inhibitory concentration (IC50) is 36 nM in test [1], 1340 nM in test [2], 133 nM in test [4] and 27 nM in test [7]. In addition, the EC50 came to 284 nM in test [3], 1240 nM in test [5] and 1630 nM in test [6].
Consider `CC(C)C[C@@H]1NC(=O)[C@H](CC(C)C)N(C)C(=O)[C@H](CC(F)(F)F)NC(=O)[C@@H](CCC#N)OC(=O)[C@H](C)N(C)C(=O)[C@H](CCC(F)(F)F)NC(=O)[C@H](Cc2csc3ccccc23)N(C)C1=O` [C-49] (cyclo(L[NMeBta][Nva(5,5,5-F3)][NMeA][Butanoyl(2R-oxy,4-CN)][Abu(4,4,4-F3)][NMeL])), for which the half-maximal inhibitory concentration (IC50) in test [1] was 22 nM; in test [4], 550 nM; in test [7] it was 168 nM; in test [8], 17 nM. Besides, the figures for the concentration for a half-maximal effect (EC50) in test [3], in test [5] and in test [6] were 623 nM, 1800 nM and 3370 nM, respectively.
